In publication PMC11578424, “Discovery of novel 2,4-diarylaminopyrimidine hydrazone derivatives as potent anti-thyroid cancer agents capable of inhibiting FAK” (Journal of Enzyme Inhibition and Medicinal Chemistry, 2024):
“Also recorded” adds a separate entry of the source.

Assays:
[1] = biological target: T1, FAK (Homo sapiens, UniProt Q05397); assay: Western blot of FAK and its phosphorylation sites in TPC-1 cells; assay type: cell-based; settings: TPC-1 cells, 50, 100 and 200 nmol/L, 48 h
Method: Different concentrations of compound 14f are applied to TCP-1 cells for 48 h, after which the cells are collected and lysed in RIPA lysis buffer (Solarbio, R0010). Protein concentration is determined using the BCA Protein Concentration Assay Kit (Solarbio, PC0020). Proteins were denatured using 4X SDS-PAGE loading buffer (Solarbio, P1016) at 100 °C for 10 min. The denatured protein samples are separated by SDS-PAGE electrophoresis. Proteins are transferred from the gel to nitrocellulose (NC) membrane (Pall Corporation, P/N 66485) and blocked with 5% non-fat milk for 1 h at room temperature. After washing with TBST, the primary antibody is added and incubated overnight at 4 °C. The membrane is washed with TBST and then incubated with the secondary antibody at room temperature for 1–2 h. The membrane is washed again with TBST, and the protein bands are visualised using an ECL (Solarbio, PE0010) ultra-sensitive luminescent reagent, followed by imaging with a chemiluminescence imaging analyser (Cytiva, […] ImageQuant 800, JPN). The ladder used for Western Blot experiments was purchased from Thermo Scientific (Thermo Scientific, catalog number:26616). […]

[2] = system: thyroid cancer cells TPC-1; assay: MTT antiproliferative assay; assay type: cell-based
Method: Thyroid cancer cells TCP-1 were provided by Wuhan Servicebio Co., Ltd. TCP-1 cells are cultured in RPMI-1640 medium supplemented with 10% foetal bovine serum (FBS), 100 U/mL penicillin, and 0.1 mg/mL streptomycin. All cells are maintained in a humidified incubator at 37 °C with 5% CO2.
The TCP-1 cell line is seeded into a 96-well plate and incubated under conditions of 37 °C and 5% CO2. After the cells adhere, different concentrations of compounds are added and the incubation continues for 48 h under the same conditions. Subsequently, MTT reagent is added to the medium and the incubation is continued for an additional 4 h at 37 °C. After the incubation, the medium is aspirated, and 150 μL of DMSO solution is added to dissolve the purple-blue crystals by shaking. The absorbance of the solution is measured at a wavelength of 490 nm. The IC50 value of the compounds is calculated using SPSS software version 20.0.

[3] = biological target: ALK (Homo sapiens, UniProt Q9UM73); assay: Kinase inhibition assay (Kinase-Glo Plus); assay type: biochemical; settings: Figure 3A; 10 µM ATP; read-out: IC50 (nmol/L) ALK
ALK, sequence (Q9UM73 19-1620, species assumed): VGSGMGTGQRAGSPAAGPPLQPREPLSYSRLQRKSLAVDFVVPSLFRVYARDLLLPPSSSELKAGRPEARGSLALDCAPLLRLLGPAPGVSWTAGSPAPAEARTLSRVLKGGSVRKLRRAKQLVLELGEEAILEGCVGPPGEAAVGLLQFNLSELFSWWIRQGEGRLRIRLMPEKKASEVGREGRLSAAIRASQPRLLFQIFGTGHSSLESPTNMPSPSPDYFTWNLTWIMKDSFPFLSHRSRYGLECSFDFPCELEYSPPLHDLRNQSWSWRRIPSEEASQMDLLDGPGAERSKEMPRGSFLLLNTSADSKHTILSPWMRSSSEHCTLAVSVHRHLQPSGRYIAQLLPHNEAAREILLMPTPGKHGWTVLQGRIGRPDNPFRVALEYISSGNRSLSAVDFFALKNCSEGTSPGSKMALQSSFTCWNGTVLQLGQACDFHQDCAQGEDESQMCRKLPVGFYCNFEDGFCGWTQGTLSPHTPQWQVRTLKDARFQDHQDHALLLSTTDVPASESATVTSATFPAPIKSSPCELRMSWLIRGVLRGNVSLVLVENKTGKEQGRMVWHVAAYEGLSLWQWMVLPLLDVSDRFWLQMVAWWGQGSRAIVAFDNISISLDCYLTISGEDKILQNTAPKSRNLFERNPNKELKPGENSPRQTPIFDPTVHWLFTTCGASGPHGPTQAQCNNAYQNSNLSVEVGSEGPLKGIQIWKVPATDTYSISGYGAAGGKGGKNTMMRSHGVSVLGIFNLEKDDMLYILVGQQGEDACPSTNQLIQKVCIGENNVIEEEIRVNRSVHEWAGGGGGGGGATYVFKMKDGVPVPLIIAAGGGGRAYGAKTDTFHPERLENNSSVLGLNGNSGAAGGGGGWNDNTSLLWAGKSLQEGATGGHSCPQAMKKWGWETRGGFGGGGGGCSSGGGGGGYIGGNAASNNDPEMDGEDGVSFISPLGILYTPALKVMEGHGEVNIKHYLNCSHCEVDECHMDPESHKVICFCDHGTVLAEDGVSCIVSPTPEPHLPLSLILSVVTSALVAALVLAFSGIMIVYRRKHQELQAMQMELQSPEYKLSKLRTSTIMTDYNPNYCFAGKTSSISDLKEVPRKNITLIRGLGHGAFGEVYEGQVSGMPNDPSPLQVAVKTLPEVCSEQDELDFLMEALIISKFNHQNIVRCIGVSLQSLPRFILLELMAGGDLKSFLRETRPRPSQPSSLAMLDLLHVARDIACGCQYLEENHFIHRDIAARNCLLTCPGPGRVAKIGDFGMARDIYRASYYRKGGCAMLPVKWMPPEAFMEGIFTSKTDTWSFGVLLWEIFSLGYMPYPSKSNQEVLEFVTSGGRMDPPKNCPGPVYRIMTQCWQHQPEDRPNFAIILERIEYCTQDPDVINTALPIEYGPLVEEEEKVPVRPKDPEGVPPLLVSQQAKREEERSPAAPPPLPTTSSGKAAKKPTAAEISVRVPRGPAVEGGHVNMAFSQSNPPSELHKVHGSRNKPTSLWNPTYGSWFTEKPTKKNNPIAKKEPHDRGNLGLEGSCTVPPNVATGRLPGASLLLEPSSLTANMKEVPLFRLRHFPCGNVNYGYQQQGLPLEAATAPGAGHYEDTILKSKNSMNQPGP
Method: (§1) The 50 µl reaction mixture contains 40 mM Tris, pH 7.4, 10 mM MgCl2, 0.1 mg/ml BSA, 1 mM DTT, 10 µM ATP, Kinase and the enzyme substrate. The compound was diluted in 10% DMSO and 5 µl of the dilution was added to a 50 µl reaction so that the final concentration of DMSO is 1% in all of the reactions. The assay was performed using a Kinase-Glo Plus luminescence kinase assay kit. It measures kinase activity by quantitating the amount of ATP remaining in solution following a kinase reaction. The luminescent signal from the assay is correlated with the amount of ATP present and is inversely correlated with the amount of kinase activity. The IC50 values were calculated using nonlinear regression with normalised dose-response fit using Prism GraphPad software.

[4] = biological target: EGFR (Homo sapiens, UniProt P00533); assay: Kinase inhibition assay (Kinase-Glo Plus); assay type: biochemical; settings: Figure 3A; 10 µM ATP; read-out: IC50 (nmol/L) EGFR
EGFR, sequence (P00533 25-1210, species assumed): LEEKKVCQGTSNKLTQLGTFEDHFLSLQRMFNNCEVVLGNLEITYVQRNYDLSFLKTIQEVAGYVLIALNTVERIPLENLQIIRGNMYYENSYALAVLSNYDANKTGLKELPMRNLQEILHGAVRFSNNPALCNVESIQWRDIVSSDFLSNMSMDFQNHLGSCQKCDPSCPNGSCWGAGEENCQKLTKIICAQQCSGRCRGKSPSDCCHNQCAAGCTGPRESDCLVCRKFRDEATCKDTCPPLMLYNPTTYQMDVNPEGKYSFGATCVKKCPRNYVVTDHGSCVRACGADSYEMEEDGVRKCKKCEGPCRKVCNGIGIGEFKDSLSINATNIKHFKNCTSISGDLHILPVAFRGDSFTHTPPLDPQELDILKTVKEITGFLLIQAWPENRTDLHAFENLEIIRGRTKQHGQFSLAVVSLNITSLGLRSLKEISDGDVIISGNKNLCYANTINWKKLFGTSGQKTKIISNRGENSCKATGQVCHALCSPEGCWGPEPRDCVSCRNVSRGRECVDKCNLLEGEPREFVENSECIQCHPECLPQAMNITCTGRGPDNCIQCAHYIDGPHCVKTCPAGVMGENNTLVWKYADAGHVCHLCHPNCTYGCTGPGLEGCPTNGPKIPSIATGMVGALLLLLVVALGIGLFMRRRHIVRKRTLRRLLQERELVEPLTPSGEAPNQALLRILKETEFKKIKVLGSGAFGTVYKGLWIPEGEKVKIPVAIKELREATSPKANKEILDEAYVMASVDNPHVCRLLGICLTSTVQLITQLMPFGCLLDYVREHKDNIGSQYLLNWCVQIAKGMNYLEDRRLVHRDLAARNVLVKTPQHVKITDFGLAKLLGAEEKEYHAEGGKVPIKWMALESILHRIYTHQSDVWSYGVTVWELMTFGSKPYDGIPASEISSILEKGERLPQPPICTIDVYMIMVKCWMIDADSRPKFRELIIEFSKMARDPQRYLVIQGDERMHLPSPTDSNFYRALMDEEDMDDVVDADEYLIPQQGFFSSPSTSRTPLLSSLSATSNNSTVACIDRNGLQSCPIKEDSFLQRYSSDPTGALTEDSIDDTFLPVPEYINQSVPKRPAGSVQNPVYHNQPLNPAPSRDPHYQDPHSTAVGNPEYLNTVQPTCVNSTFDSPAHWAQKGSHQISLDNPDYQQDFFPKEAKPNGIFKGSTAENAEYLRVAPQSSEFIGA
Method: as §1

[5] = biological target: ROS1 (Homo sapiens, UniProt P08922); assay: Kinase inhibition assay (Kinase-Glo Plus); assay type: biochemical; settings: Figure 3A; 10 µM ATP; read-out: IC50 (nmol/L) ROS1
ROS1, sequence (P08922 1883-2347 limits assumed): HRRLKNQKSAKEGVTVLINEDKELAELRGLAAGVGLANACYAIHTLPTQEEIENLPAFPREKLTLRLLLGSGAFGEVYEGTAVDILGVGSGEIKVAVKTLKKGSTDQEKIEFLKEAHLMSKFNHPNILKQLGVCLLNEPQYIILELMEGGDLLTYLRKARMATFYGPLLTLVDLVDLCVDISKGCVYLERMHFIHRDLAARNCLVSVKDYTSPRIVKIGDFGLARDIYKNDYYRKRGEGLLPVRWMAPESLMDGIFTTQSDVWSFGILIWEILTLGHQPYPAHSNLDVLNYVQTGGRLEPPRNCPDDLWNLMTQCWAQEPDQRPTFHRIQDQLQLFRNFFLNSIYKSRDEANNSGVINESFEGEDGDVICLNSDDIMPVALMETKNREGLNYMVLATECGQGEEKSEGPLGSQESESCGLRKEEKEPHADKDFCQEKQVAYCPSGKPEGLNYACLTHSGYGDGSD
Method: as §1

[6] = system: thyroid cancer cells TPC-1; assay: Wound healing assay; assay type: cell-based; settings: TPC-1 cells, various durations
Method: TCP-1 cells are seeded into a 6-well cell culture plate and cultured in an incubator at 37 °C with 5% CO2. Once the cells uniformly cover the bottom of the well, a vertical line is drawn in the centre of each well to mark the initial scratch. Fresh medium is replaced and different concentrations of 14f are added. Photographs are taken to document the healing at 0 h, 24 h, 36 h and 48 h post-scratch. Images are processed using ImageJ software. Data analysis is performed using GraphPad Prism software version 8.0.

[7] = biological target: T1, FAK; assay: Kinase inhibition assay (Kinase-Glo Plus); assay type: biochemical; settings: 10 µM ATP
Text: It measures kinase activity by quantitating the amount of ATP remaining in solution following a kinase reaction. The luminescent signal from the assay is correlated with the amount of ATP present and is inversely correlated with the amount of kinase activity.

[8] = system: thyroid cancer cells TPC-1; assay: Transwell migration assay; assay type: cell-based; settings: TPC-1 cells, 48 h
Method: A 24-well plate is filled with 500 μL of RPMI-1640 medium containing 20% serum per well, and Transwell chambers are placed in the wells. TCP-1 cells are resuspended in serum-free medium and mixed with compound 14f, then added to the upper chamber of the Transwell chambers. The 24-well plates are incubated at 37 °C with 5% CO2 for 48 h. After incubation, the plates are removed, and the chambers are immersed in 4% paraformaldehyde and fixed at room temperature for 10 min. Following fixation, 0.1% crystal violet staining solution is added to the 24-well plates, and the chambers are stained at room temperature for 30 min. After staining, the plates are washed, the upper layer of cells is gently wiped off with a cotton swab, and the chambers are air-dried. Images are captured using a microscope.

[9] = system: TPC-1 cells; assay: Cell cycle distribution; assay type: cell-based; settings: 48-h treatment
[10] = system: TPC-1 cells; assay: Colony formation assay; assay type: cell-based; settings: 5-day treatment
Method: TCP-1 cells are plated at a density of 10,000 to 20,000 cells per well in a 6-well plate. After cell adhesion, the cells are treated with different concentrations of compound 14f and cultured for 5 days in an incubator. At the end of the culture period, the medium is aspirated, and the cells are washed three times with PBS. The cells are then fixed with 4% paraformaldehyde for 20 min at room temperature. After fixation, the fixative is removed, and the cells are stained with 0.1% crystal violet at room temperature for 20 min. Following staining, the cells are rinsed with PBS until the purple colour is completely washed away, and then air-dried for image acquisition.

[11] = system: thyroid cancer cells TPC-1; assay: EdU staining assay; assay type: cell-based; settings: TPC-1 cells, 48 h
Method: TCP-1 cells are treated with compound 14f, followed by the addition of an equal volume of 1X EdU working solution to the drug-containing medium, and incubated under conditions of 37 °C and 5% CO2 for 4 h. After incubation, the cells are fixed with 4% paraformaldehyde for 15 min. The fixative is then removed, and the cells are permeabilized with PBS containing 0.3% Triton X-100 at room temperature. After washing, the Click reaction working solution is added and incubated at 37 °C for 30 min. The cells are then washed and stained with a prepared Hoechst staining solution for 10 min to stain the cell nuclei. After staining, the staining solution is removed, the cells are washed, and images are captured and saved using a fluorescence microscope.

T1 sequence (Q05397 whole entry, species assumed): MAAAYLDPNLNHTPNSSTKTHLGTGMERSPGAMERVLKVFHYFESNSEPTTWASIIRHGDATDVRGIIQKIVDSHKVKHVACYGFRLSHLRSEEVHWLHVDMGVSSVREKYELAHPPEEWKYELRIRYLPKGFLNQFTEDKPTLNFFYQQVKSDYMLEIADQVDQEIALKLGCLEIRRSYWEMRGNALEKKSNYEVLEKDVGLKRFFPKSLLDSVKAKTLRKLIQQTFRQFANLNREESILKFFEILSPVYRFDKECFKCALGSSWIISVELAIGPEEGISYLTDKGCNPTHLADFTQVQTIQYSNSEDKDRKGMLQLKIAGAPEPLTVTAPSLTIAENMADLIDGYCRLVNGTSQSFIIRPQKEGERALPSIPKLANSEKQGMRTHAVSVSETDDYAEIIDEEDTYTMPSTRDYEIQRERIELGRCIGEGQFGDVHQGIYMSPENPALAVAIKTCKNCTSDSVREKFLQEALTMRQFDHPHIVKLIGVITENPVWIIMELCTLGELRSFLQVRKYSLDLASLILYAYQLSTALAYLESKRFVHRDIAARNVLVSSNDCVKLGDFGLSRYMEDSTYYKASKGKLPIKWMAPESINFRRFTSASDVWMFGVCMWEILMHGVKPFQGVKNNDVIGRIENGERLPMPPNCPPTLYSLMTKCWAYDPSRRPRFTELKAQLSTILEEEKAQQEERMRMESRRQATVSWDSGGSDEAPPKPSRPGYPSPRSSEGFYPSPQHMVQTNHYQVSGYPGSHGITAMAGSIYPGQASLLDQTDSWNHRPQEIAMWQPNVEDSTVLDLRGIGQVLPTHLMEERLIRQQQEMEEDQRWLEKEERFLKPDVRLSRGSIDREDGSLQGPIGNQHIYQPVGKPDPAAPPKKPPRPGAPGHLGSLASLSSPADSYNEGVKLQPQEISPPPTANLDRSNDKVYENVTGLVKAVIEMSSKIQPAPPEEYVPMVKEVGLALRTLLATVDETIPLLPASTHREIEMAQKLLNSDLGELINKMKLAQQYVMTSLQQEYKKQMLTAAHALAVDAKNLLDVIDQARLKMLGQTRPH

CNC(=O)c1ccccc1Nc1nc(N/N=C/c2ccc(F)cc2)ncc1Cl [14f, (E)-2-((5-chloro-2–(2-(4-fluorobenzylidene)hydrazineyl)pyrimidin-4-yl)amino)-N-methylbenzamide]
expression level of FAK [1]: did not affect the expression level of FAK; also recorded: no significant changes
melting point: 176.1 to 177.8 °C
IC50 ([2]; Homo sapiens, TPC1, 48 h, MTT assay, 48 h, average with SD (n = 3, duplicate), read-out: IC50 (μM), antiproliferative activity against thyroid cancer cells TPC-1): 0.113 ± 0.003 µM
times more potent than TAE-226 in TPC-1 cells ([2]; ratio of IC50 values, TPC-1 cells): approximately 8.57 times
IC50 [3]: 285 nmol/L
IC50 [4]: > 1000 nmol/L
IC50 [5]: 593 nmol/L
wound healing (cell migration) [6]: significant inhibitory effect on cell migration
IC50 [7]: 0.035 µM
number of cells that traversed through the membrane [8]: significant reduction
cell cycle distribution [9]: pronounced G1 phase arrest
concentration from which colony formation is discernibly inhibited [10]: ≥ 100 nmol/L
number of cells positive for EdU [11]: significant reduction
